Test results as given in patent US9226916B2, “Pyrrolidine derivatives” (HOFFMANN-LA ROCHE INC., priority 2009, dated 2016).
Where two headings read alike, the source gives them in different places.

Target: T1, recombinant human NK3 receptor (Homo sapiens, UniProt P29371)
T1 construct: expressed in transfected cells; host or cells: HEK293 cells, transient expression; membranes
T1 sequence (P29371 1-465): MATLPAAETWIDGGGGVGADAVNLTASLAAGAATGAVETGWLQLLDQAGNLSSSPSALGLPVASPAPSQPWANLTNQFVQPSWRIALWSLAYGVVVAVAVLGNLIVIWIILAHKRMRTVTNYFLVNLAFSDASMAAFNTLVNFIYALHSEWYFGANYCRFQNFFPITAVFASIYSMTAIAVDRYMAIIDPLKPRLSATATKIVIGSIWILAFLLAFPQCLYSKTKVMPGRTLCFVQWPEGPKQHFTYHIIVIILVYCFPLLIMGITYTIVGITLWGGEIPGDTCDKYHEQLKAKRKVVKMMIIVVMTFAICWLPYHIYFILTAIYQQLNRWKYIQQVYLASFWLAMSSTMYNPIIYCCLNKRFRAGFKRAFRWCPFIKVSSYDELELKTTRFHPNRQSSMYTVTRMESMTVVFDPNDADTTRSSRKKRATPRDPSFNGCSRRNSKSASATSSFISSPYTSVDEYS
Test: [3H]SR142801 competition binding assay

[1] = hNK-3 receptor affinity, membranes from HEK293 cells transiently expressing recombinant human NK3 receptor, [3H]SR142801, Cheng-Prussoff, read-out: Data Ki

| SMILES | Ki [1] [nM] | Ki [nM] |
| --- | --- | --- |
| CN(C(=O)OCCC1CC1)[C@@H]1CN(C(=O)C2CCN(C(=O)C3(C)CC3)CC2)C[C@H]1c1ccc(Cl)c(Cl)c1 [Example 36, {(3S,4R)-4-(3,4-Dichloro-phenyl)-1-[1-(1-methyl-cyclopropanecarbonyl)-piperidine-4-arbonyl]-pyrrolidin-3-yl}-methyl-carbamic acid 2-cyclopropyl-ethyl ester] | 33 | – |
| CN(C(=O)Oc1ccc(F)cc1)[C@H]1CN(C(=O)C2CCN(C(=O)C3(C)CC3)CC2)C[C@@H]1c1ccc(Cl)cc1 [Example 38, {(3R,4S)-4-(4-Chloro-phenyl)-1-[1-(1-methyl-cyclopropanecarbonyl)-piperidine-4-carbonyl]-pyrrolidin-3-yl}-methyl-carbamic acid 4-fluoro-phenyl ester] | – | 42 |
| CN(C(=O)Oc1ccc(F)cc1)[C@@H]1CN(C(=O)C2CCN(C(=O)C3(C)CC3)CC2)C[C@H]1c1ccc(Cl)cc1 [Example 39, {(3S,4R)-4-(4-Chloro-phenyl)-1-[1-(1-methyl-cyclopropanecarbonyl)-piperidine-4-carbonyl]-pyrrolidin-3-yl}-methyl-carbamic acid 4-fluoro-phenyl ester] | – | 11 |
| CN(C(=O)Oc1ccc(F)cc1)[C@@H]1CN(C(=O)C2CCOCC2)C[C@H]1c1ccc(Cl)c(Cl)c1 [Example 51, [(3S,4R)-4-(3,4-Dichloro-phenyl)-1-(tetrahydro-pyran-4-carbonyl)-pyrrolidin-3-yl]-methyl-carbamic acid 4-fluoro-phenyl ester] | – | 1.8 |
| CN(C(=O)Oc1ccc(F)cc1)[C@@H]1CN(C(=O)[C@H]2CC[C@@H](O)CC2)C[C@H]1c1ccc(Cl)c(Cl)c1 [Example 60, [(3S,4R)-4-(3,4-Dichloro-phenyl)-1-(cis-4-hydroxy-cyclohexanecarbonyl)-pyrrolidin-3-yl]-methyl-carbamic acid 4-fluoro-phenyl ester] | – | 1.7 |
| CN(C(=O)OCCCC(F)(F)F)[C@H]1CN(C(=O)C2CCN(C(=O)C3(C)CC3)CC2)C[C@@H]1c1ccc(Cl)c(Cl)c1 [Example 81, {(3R,4S)-4-(3,4-Dichloro-phenyl)-1-[1-(1-methyl-cyclopropanecarbonyl)-piperidine-4-carbonyl]-pyrrolidin-3-yl}-methyl-carbamic acid 4,4,4-trifluoro-butyl ester] | 67 | – |
| CN(C(=O)OCCCC(F)(F)F)[C@@H]1CN(C(=O)C2CCN(C(=O)C3(C)CC3)CC2)C[C@H]1c1ccc(Cl)c(Cl)c1 [Example 82, {(3S,4R)-4-(3,4-Dichloro-phenyl)-1-[1-(1-methyl-cyclopropanecarbonyl)-piperidine-4-carbonyl]-pyrrolidin-3-yl}-methyl-carbamic acid 4,4,4-trifluoro-butyl ester] | 1.4 | – |
| CN(C(=O)Oc1ccc(F)cc1)[C@@H]1CN(C(=O)[C@H]2CC[C@H](O)CC2)C[C@H]1c1ccc(Cl)cc1 [Example 89, [(3S,4R)-4-(4-Chloro-phenyl)-1-(4-hydroxy-cyclohexanecarbonyl)-pyrrolidin-3-yl]-methyl-carbamic acid 4-fluoro-phenyl ester] | – | 20.2 |
| CN(C(=O)Oc1ccc(F)cc1)[C@@H]1CN(C(=O)C2CCOCC2)C[C@H]1c1ccc(Cl)cc1 [Example 90, [(3S,4R)-4-(4-Chloro-phenyl)-1-(tetrahydro-pyran-4-carbonyl)-pyrrolidin-3-yl]-methyl-carbamic acid 4-fluoro-phenyl ester] | – | 7.9 |
| CN(C(=O)Oc1ccc(F)cc1)[C@@H]1CN(C(=O)C2CCS(=O)(=O)CC2)C[C@H]1c1ccc(Cl)cc1 [Example 93, [(3S,4R)-4-(4-Chloro-phenyl)-1-(1,1-dioxo-hexahydro-1λ^6-thiopyran-4-carbonyl)-pyrrolidin-3-yl]-methyl-carbamic acid 4-fluoro-phenyl ester] | – | 6.6 |
| CN(C(=O)Oc1ccc(F)cc1)[C@@H]1CN(C(=O)C2CCN(c3ccc(C#N)cn3)CC2)C[C@H]1c1ccc(Cl)cc1 [Example 94, [(3S,4R)-4-(4-Chloro-phenyl)-1-(5′-cyano-3,4,5,6-tetrahydro-2H-[1,2′]bipyridinyl-4-carbonyl)-pyrrolidin-3-yl]-methyl-carbamic acid 4-fluoro-phenyl ester] | – | 0.2 |
| CN(C(=O)OCCCC(F)(F)F)[C@H]1CN(C(=O)C2CCN(C(=O)C3(C)CC3)CC2)C[C@@H]1c1ccc(Cl)cc1 [Example 100, {(3R,4S)-4-(4-Chloro-phenyl)-1-[1-(1-methyl-cyclopropanecarbonyl)-piperidine-4-carbonyl]-pyrrolidin-3-yl}-methyl-carbamic acid 4,4,4-trifluoro-butyl ester] | 12.2 | – |
| CN(C(=O)Oc1ccc(F)cc1)[C@@H]1CN(C(=O)[C@H]2CC[C@H](C#N)CC2)C[C@H]1c1ccc(Cl)cc1 [Example 104, [(3S,4R)-4-(4-Chloro-phenyl)-1-(4-cyano-cyclohexanecarbonyl)-pyrrolidin-3-yl]-methyl-carbamic acid 4-fluoro-phenyl ester] | – | 7.4 |
| CN(C(=O)OCC1(C)CC1)[C@@H]1CN(C(=O)C2CCN(C(=O)C3(C)CC3)CC2)C[C@H]1c1ccc(Cl)c(Cl)c1 [Example 105, {(3S,4R)-4-(3,4-Dichloro-phenyl)-1-[1-(1-methyl-cyclopropanecarbonyl)-piperidine-4-carbonyl]-pyrrolidin-3-yl}-methyl-carbamic acid 1-methyl-cyclopropylmethyl ester] | 70.5 | – |
| CN(C(=O)OCC1(C)CC1)[C@H]1CN(C(=O)C2CCN(C(=O)C3(C)CC3)CC2)C[C@@H]1c1ccc(Cl)c(Cl)c1 [Example 106, {(3R,4S)-4-(3,4-Dichloro-phenyl)-1-[1-(1-methyl-cyclopropanecarbonyl)-piperidine-4-carbonyl]-pyrrolidin-3-yl}-methyl-carbamic acid 1-methyl-cyclopropylmethyl ester] | 1 | – |
| CN(C(=O)O[C@H]1CC[C@@H](C(F)(F)F)CC1)[C@H]1CN(C(=O)C2CCN(C(=O)C3(C)CC3)CC2)C[C@@H]1c1ccc(Cl)c(Cl)c1 [Example 107, {(3R,4S)-4-(3,4-Dichloro-phenyl)-1-[1-(1-methyl-cyclopropanecarbonyl)-piperidine-4-carbonyl]-pyrrolidin-3-yl}-methyl-carbamic acid 4-trifluoromethyl-cyclohexyl ester] | 58.6 | – |
| CN(C(=O)O[C@H]1CC[C@@H](C(F)(F)F)CC1)[C@@H]1CN(C(=O)C2CCN(C(=O)C3(C)CC3)CC2)C[C@H]1c1ccc(Cl)c(Cl)c1 [Example 108, {(3S,4R)-4-(3,4-Dichloro-phenyl)-1-[1-(1-methyl-cyclopropanecarbonyl)-piperidine-4-carbonyl]-pyrrolidin-3-yl}-methyl-carbamic acid 4-trifluoromethyl-cyclohexyl ester] | 0.7 | – |
| CN(C(=O)Oc1ccc(F)cc1)[C@@H]1CN(C(=O)C2CCN(C3CCS(=O)(=O)CC3)CC2)C[C@H]1c1ccc(Cl)cc1 [Example 109, {(3S,4R)-4-(4-Chloro-phenyl)-1-[1-(1,1-dioxo-hexahydro-1λ^6-thiopyran-4-yl)-piperidine-4-carbonyl]-pyrrolidin-3-yl}-methyl-carbamic acid 4-fluoro-phenyl ester] | – | 0.2 |
| CN(C(=O)Oc1ccc(F)cc1)[C@@H]1CN(C(=O)C2CCN(c3ccc(Cl)nn3)CC2)C[C@H]1c1ccc(Cl)cc1 [Example 110, {(3S,4R)-4-(4-Chloro-phenyl)-1-[1-(6-chloro-pyridazin-3-yl)-piperidine-4-carbonyl]-pyrrolidin-3-yl}-methyl-carbamic acid 4-fluoro-phenyl ester] | – | 0.3 |
| CN(C(=O)Oc1ccc(F)cc1)[C@@H]1CN(C(=O)C2CCN(C3CCOCC3)CC2)C[C@H]1c1ccc(Cl)cc1 [Example 112, {(3S,4R)-4-(4-Chloro-phenyl)-1-[1-(tetrahydro-pyran-4-yl)-piperidine-4-carbonyl]-pyrrolidin-3-yl}-methyl-carbamic acid 4-fluoro-phenyl ester] | – | 3.7 |
| CN(C(=O)Oc1ccc(F)c(Br)c1)[C@@H]1CN(C(=O)C2CCN(C(=O)C3(C)CC3)CC2)C[C@H]1c1ccc(Cl)c(Cl)c1 [Example 113, {(3S,4R)-4-(3,4-Dichloro-phenyl)-1-[1-(1-methyl-cyclopropanecarbonyl)-piperidine-4-carbonyl]-pyrrolidin-3-yl}-methyl-carbamic acid 3-bromo-4-fluoro-phenyl ester] | – | 0.3 |
| CN(C(=O)Oc1ccc(F)cc1)[C@@H]1CN(C(=O)CCN2CCOCC2)C[C@H]1c1ccc(Cl)cc1 [Example 114, [(3S,4R)-4-(4-Chloro-phenyl)-1-(3-morpholin-4-yl-propionyl)-pyrrolidin-3-yl]-methyl-carbamic acid 4-fluoro-phenyl ester] | – | 83 |
| CN(C(=O)Oc1ccc(F)cc1)[C@@H]1CN(C(=O)C2CCN(C3CCS(=O)(=O)C3)CC2)C[C@H]1c1ccc(Cl)cc1 (stereo partly drawn) [Example 115, {(3S,4R)-4-(4-Chloro-phenyl)-1-[1-(1,1-dioxo-tetrahydro-1λ^6-thiophen-3-yl)-piperidine-4-carbonyl]-pyrrolidin-3-yl}-methyl-carbamic acid 4-fluoro-phenyl ester] | – | 1.3 |
| CN(C(=O)Oc1ccc(F)cc1)[C@@H]1CN(C(=O)C2CCC(CO)CC2)C[C@H]1c1ccc(Cl)cc1 (stereo partly drawn) [Example 116, [(3S,4R)-4-(4-Chloro-phenyl)-1-(4-hydroxymethyl-cyclohexanecarbonyl)-pyrrolidin-3-yl]-methyl-carbamic acid 4-fluoro-phenyl ester] | – | 10 |
